# US11168102B1, “Bicyclic heteroaryl compounds and uses thereof” (Revolution Medicines, Inc., priority 2019, dated 2021)
# System: cellular pERK in PC-9 cells (EGFR Ex19Del)
# Experiment: Potency assay: pERK (AlphaLISA SureFire Ultra p-ERK1/2) in PC-9 cells
# Assay type: cell-based
# Details: Homo sapiens, PC-9, 1 h, PC-9 cells (EGFR Ex19Del), 1 hour incubation, AlphaLISA SureFire Ultra p-ERK1/2; read-out: SOS1 pERK IC50
row,Compound,IC50 [nM]
1,C[C@@H](Nc1ncnc2c1cc(C1(O)CCS(=O)(=O)C1)c(=O)n2C)c1cccc(C(F)F)c1F (stereo partly drawn) [Example 28-3],111
2,Cc1nc(N[C@H](C)c2cccc(C(F)F)c2F)c2cc(C3=CCNCC3)c(=O)n(C)c2n1 [Example 1-9],666
3,C[C@@H](Nc1ncnc2c1cc(C1=C[C@H]3CNC[C@@H](C1)O3)c(=O)n2C)c1cccc(C(F)F)c1F [Example 1-13],195
4,C[C@@H](Nc1ncnc2c1cc(C1=CCOCC1)c(=O)n2C)c1cccc(C(F)F)c1F [Example 1-5],222
5,Cc1nc(N[C@H](C)c2cccc(C(F)F)c2F)c2cc(C3=CCOC3)c(=O)n(C)c2n1 [Example 1-7],693
6,C[C@@H](Nc1ncnc2c1cc(C1=CCNCC1)c(=O)n2C)c1cccc(C(F)(F)F)c1 [Example 1-2],114
7,C[C@@H](Nc1ncnc2c1cc(C1(F)CCN(C)CC1)c(=O)n2C)c1cccc(C(F)F)c1F [Example 29-3],120
8,C[C@@H](Nc1ncnc2c1cc(C1=CCS(=O)(=O)CC1)c(=O)n2C)c1cccc(C(F)F)c1F [Example 1-17],50.7
9,C[C@@H](Nc1ncnc2c1cc(C(=O)N1CCOCC1)c(=O)n2C)c1cccc(C(F)F)c1F [Example 26-2],314
10,C[C@@H](Nc1ncnc2c1cc(C(=O)N1CCc3ccncc31)c(=O)n2C)c1cccc(C(F)F)c1F [Example 26-29],1450
11,C[C@@H](Nc1ncnc2c1cc(C1CCS(=O)(=O)C1)c(=O)n2C)c1cccc(C(F)F)c1F (stereo partly drawn) [Example 33-1],62.1
12,Cc1nc(N[C@H](C)c2cccc(C(F)F)c2F)c2cc(C3=CCN(C)CC3)c(=O)n(C)c2n1 [Example 1-10],425
13,C[C@@H]1COC[C@H](C)N1C(=O)c1cc2c(N[C@H](C)c3cccc(C(F)F)c3F)ncnc2n(C)c1=O [Example 26-25],605
14,Cc1nc(N[C@H](C)c2cccc(C(F)F)c2F)c2cc(C3=CCS(=O)(=O)CC3)c(=O)n(C)c2n1 [Example 1-25],83.7
15,C[C@@H](Nc1ncnc2c1cc(C(=O)N1C3CC1CN(C)C3)c(=O)n2C)c1cccc(C(F)F)c1F [Example 26-11],251
16,C[C@@H](Nc1ncnc2c1cc(C1CN(C)CCO1)c(=O)n2C)c1cccc(C(F)F)c1F (stereo partly drawn) [Example 8-1],68.4
17,Cc1nc(N[C@H](C)c2cccc(C(F)F)c2F)c2cc(-c3cccn(CCO)c3=O)c(=O)n(C)c2n1 [Example 21-12],588
18,C[C@@H](Nc1ncnc2c1cc(C(=O)N(C)c1nccs1)c(=O)n2C)c1cccc(C(F)F)c1F [Example 26-20],1750
19,Cc1nc(N[C@H](C)c2cccc(C(F)F)c2F)c2cc(C3=CCS(=N)(=O)CC3)c(=O)n(C)c2n1 (stereo partly drawn) [Example 23-1],76
20,CC(=O)N1CC=C(c2cc3c(N[C@H](C)c4cccc5c4OCC5(F)F)ncnc3n(C)c2=O)CC1 [Example 1-18],67
21,C[C@@H]1CN(C(=O)c2cc3c(N[C@H](C)c4cccc(C(F)F)c4F)ncnc3n(C)c2=O)C[C@H](C)O1 [Example 26-22],2610
22,Cc1nc(N[C@H](C)c2cccc(C(F)F)c2F)c2cc(C3(F)CCN(C)CC3)c(=O)n(C)c2n1 [Example 29-4],144

# Target: SOS1 nucleotide exchange of wild-type KRAS (Homo sapiens (Human), UniProt Q07889)
# Sequence (Q07889 564-1049): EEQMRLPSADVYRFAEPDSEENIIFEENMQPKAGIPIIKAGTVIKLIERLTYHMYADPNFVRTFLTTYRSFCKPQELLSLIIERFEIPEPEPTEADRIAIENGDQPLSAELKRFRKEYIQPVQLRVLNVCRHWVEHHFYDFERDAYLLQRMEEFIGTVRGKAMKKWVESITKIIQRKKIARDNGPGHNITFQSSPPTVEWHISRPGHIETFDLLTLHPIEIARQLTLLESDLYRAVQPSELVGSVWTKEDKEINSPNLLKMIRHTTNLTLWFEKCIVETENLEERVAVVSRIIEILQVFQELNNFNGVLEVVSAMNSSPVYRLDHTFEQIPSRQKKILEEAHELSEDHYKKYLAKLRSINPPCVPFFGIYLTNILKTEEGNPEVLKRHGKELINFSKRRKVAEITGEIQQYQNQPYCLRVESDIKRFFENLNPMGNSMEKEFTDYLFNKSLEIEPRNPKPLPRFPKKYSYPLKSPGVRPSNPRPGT
# Experiment: Mode of action assay: inhibition of SOS1 nucleotide exchange activity (TR-FRET)
# Assay type: biochemical
# Details: SOS1 catalytic domain (564-1049), avi-tagged KRAS (1-169), EDA-GTP-DY-647P1; three replicates
row,Compound,IC50 [nM]
1,C[C@@H](Nc1ncnc2c1cc(C1(O)CCS(=O)(=O)C1)c(=O)n2C)c1cccc(C(F)F)c1F (stereo partly drawn) [Example 28-3],99.8
2,Cc1nc(N[C@H](C)c2cccc(C(F)F)c2F)c2cc(C3=CCNCC3)c(=O)n(C)c2n1 [Example 1-9],48.9
3,C[C@@H](Nc1ncnc2c1cc(C1=C[C@H]3CNC[C@@H](C1)O3)c(=O)n2C)c1cccc(C(F)F)c1F [Example 1-13],19.3
4,C[C@@H](Nc1ncnc2c1cc(C1=CCOCC1)c(=O)n2C)c1cccc(C(F)F)c1F [Example 1-5],32
5,Cc1nc(N[C@H](C)c2cccc(C(F)F)c2F)c2cc(C3=CCOC3)c(=O)n(C)c2n1 [Example 1-7],257
6,C[C@@H](Nc1ncnc2c1cc(C1=CCNCC1)c(=O)n2C)c1cccc(C(F)(F)F)c1 [Example 1-2],23.8
7,C[C@@H](Nc1ncnc2c1cc(C1(F)CCN(C)CC1)c(=O)n2C)c1cccc(C(F)F)c1F [Example 29-3],42.4
8,C[C@@H](Nc1ncnc2c1cc(C1=CCS(=O)(=O)CC1)c(=O)n2C)c1cccc(C(F)F)c1F [Example 1-17],13
9,C[C@@H](Nc1ncnc2c1cc(C(=O)N1CCOCC1)c(=O)n2C)c1cccc(C(F)F)c1F [Example 26-2],102
10,C[C@@H](Nc1ncnc2c1cc(C(=O)N1CCc3ccncc31)c(=O)n2C)c1cccc(C(F)F)c1F [Example 26-29],97.8
11,C[C@@H](Nc1ncnc2c1cc(C1CCS(=O)(=O)C1)c(=O)n2C)c1cccc(C(F)F)c1F (stereo partly drawn) [Example 33-1],42.7
12,Cc1nc(N[C@H](C)c2cccc(C(F)F)c2F)c2cc(C3=CCN(C)CC3)c(=O)n(C)c2n1 [Example 1-10],42.9
13,C[C@@H]1COC[C@H](C)N1C(=O)c1cc2c(N[C@H](C)c3cccc(C(F)F)c3F)ncnc2n(C)c1=O [Example 26-25],106
14,Cc1nc(N[C@H](C)c2cccc(C(F)F)c2F)c2cc(C3=CCS(=O)(=O)CC3)c(=O)n(C)c2n1 [Example 1-25],67.3
15,C[C@@H](Nc1ncnc2c1cc(C(=O)N1C3CC1CN(C)C3)c(=O)n2C)c1cccc(C(F)F)c1F [Example 26-11],46.1
16,C[C@@H](Nc1ncnc2c1cc(C1CN(C)CCO1)c(=O)n2C)c1cccc(C(F)F)c1F (stereo partly drawn) [Example 8-1],24.6
17,Cc1nc(N[C@H](C)c2cccc(C(F)F)c2F)c2cc(-c3cccn(CCO)c3=O)c(=O)n(C)c2n1 [Example 21-12],123
18,C[C@@H](Nc1ncnc2c1cc(C(=O)N(C)c1nccs1)c(=O)n2C)c1cccc(C(F)F)c1F [Example 26-20],331
19,Cc1nc(N[C@H](C)c2cccc(C(F)F)c2F)c2cc(C3=CCS(=N)(=O)CC3)c(=O)n(C)c2n1 (stereo partly drawn) [Example 23-1],78.3
20,CC(=O)N1CC=C(c2cc3c(N[C@H](C)c4cccc5c4OCC5(F)F)ncnc3n(C)c2=O)CC1 [Example 1-18],12.8
21,C[C@@H]1CN(C(=O)c2cc3c(N[C@H](C)c4cccc(C(F)F)c4F)ncnc3n(C)c2=O)C[C@H](C)O1 [Example 26-22],113
22,Cc1nc(N[C@H](C)c2cccc(C(F)F)c2F)c2cc(C3(F)CCN(C)CC3)c(=O)n(C)c2n1 [Example 29-4],15.9

# Target: SOS1 catalytic domain (residues 564-1049) (Homo sapiens (Human), UniProt Q07889)
# Sequence (Q07889 564-1049): as above
# Experiment: Potency assay: binding affinity to SOS1 by Surface Plasmon Resonance (SPR)
# Details: avi-tagged SOS1 catalytic domain immobilized on sensor chip; 1:1 equilibrium binding fit
row,Compound,Kd [nM]
1,C[C@@H](Nc1ncnc2c1cc(C1(O)CCS(=O)(=O)C1)c(=O)n2C)c1cccc(C(F)F)c1F (stereo partly drawn) [Example 28-3],128
2,Cc1nc(N[C@H](C)c2cccc(C(F)F)c2F)c2cc(C3=CCNCC3)c(=O)n(C)c2n1 [Example 1-9],74
3,C[C@@H](Nc1ncnc2c1cc(C1=C[C@H]3CNC[C@@H](C1)O3)c(=O)n2C)c1cccc(C(F)F)c1F [Example 1-13],13.8
4,C[C@@H](Nc1ncnc2c1cc(C1=CCOCC1)c(=O)n2C)c1cccc(C(F)F)c1F [Example 1-5],16.3
5,Cc1nc(N[C@H](C)c2cccc(C(F)F)c2F)c2cc(C3=CCOC3)c(=O)n(C)c2n1 [Example 1-7],353
6,C[C@@H](Nc1ncnc2c1cc(C1=CCNCC1)c(=O)n2C)c1cccc(C(F)(F)F)c1 [Example 1-2],13.4
7,C[C@@H](Nc1ncnc2c1cc(C1(F)CCN(C)CC1)c(=O)n2C)c1cccc(C(F)F)c1F [Example 29-3],41.6
8,C[C@@H](Nc1ncnc2c1cc(C1=CCS(=O)(=O)CC1)c(=O)n2C)c1cccc(C(F)F)c1F [Example 1-17],21.3
9,C[C@@H](Nc1ncnc2c1cc(C(=O)N1CCOCC1)c(=O)n2C)c1cccc(C(F)F)c1F [Example 26-2],118
10,C[C@@H](Nc1ncnc2c1cc(C(=O)N1CCc3ccncc31)c(=O)n2C)c1cccc(C(F)F)c1F [Example 26-29],136
11,C[C@@H](Nc1ncnc2c1cc(C1CCS(=O)(=O)C1)c(=O)n2C)c1cccc(C(F)F)c1F (stereo partly drawn) [Example 33-1],486
12,Cc1nc(N[C@H](C)c2cccc(C(F)F)c2F)c2cc(C3=CCN(C)CC3)c(=O)n(C)c2n1 [Example 1-10],23.2
13,C[C@@H]1COC[C@H](C)N1C(=O)c1cc2c(N[C@H](C)c3cccc(C(F)F)c3F)ncnc2n(C)c1=O [Example 26-25],350
14,Cc1nc(N[C@H](C)c2cccc(C(F)F)c2F)c2cc(C3=CCS(=O)(=O)CC3)c(=O)n(C)c2n1 [Example 1-25],101
15,C[C@@H](Nc1ncnc2c1cc(C(=O)N1C3CC1CN(C)C3)c(=O)n2C)c1cccc(C(F)F)c1F [Example 26-11],97.8
16,C[C@@H](Nc1ncnc2c1cc(C1CN(C)CCO1)c(=O)n2C)c1cccc(C(F)F)c1F (stereo partly drawn) [Example 8-1],24.2
17,Cc1nc(N[C@H](C)c2cccc(C(F)F)c2F)c2cc(-c3cccn(CCO)c3=O)c(=O)n(C)c2n1 [Example 21-12],216
18,C[C@@H](Nc1ncnc2c1cc(C(=O)N(C)c1nccs1)c(=O)n2C)c1cccc(C(F)F)c1F [Example 26-20],1460
19,Cc1nc(N[C@H](C)c2cccc(C(F)F)c2F)c2cc(C3=CCS(=N)(=O)CC3)c(=O)n(C)c2n1 (stereo partly drawn) [Example 23-1],86.2
20,CC(=O)N1CC=C(c2cc3c(N[C@H](C)c4cccc5c4OCC5(F)F)ncnc3n(C)c2=O)CC1 [Example 1-18],22
21,C[C@@H]1CN(C(=O)c2cc3c(N[C@H](C)c4cccc(C(F)F)c4F)ncnc3n(C)c2=O)C[C@H](C)O1 [Example 26-22],474
22,Cc1nc(N[C@H](C)c2cccc(C(F)F)c2F)c2cc(C3(F)CCN(C)CC3)c(=O)n(C)c2n1 [Example 29-4],52.2
